From patent US11753403B2, “EIF4E inhibitors and uses thereof” (PIC Therapeutics, Inc., priority 2020, dated 2023) come the findings set out here.

Human eIF4E (aa 28-217) / biotin labeled 4G2 peptide, sequence (P06730 28-217): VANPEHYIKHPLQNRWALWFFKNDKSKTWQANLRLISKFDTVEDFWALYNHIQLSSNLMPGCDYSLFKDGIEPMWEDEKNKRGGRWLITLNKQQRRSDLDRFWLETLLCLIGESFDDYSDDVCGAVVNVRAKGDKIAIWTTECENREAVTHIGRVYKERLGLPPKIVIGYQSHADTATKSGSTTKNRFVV

The assay deals with Human eIF4E (aa 28-217) / biotin labeled 4G2 peptide (Homo sapiens (Human), UniProt P06730). Briefly: Human eIF4E/4G2 binding assay (TR-FRET). The settings on record: Human eIF4E/4G2 TR-FRET binding assay; head says IC50, legend says EC50. Put shortly:
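Refolded His-tagged human eIF4E (aa 28-217), 82.5 nM working stock, preincubated 4 h at RT with compounds (10-point 2-fold series) in NaPi pH 6.5 buffer with DTT and gamma globulin. Biotin-4G2 peptide then added for 20 min, followed by Eu-streptavidin/APC-anti-His for 20 min; TR-FRET 665/615 nm ratio normalized, IC50 fitted.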
Background: Time-resolved FRET reads energy transfer from a long-lived donor to a nearby acceptor.
Broadly, the IC50 is the concentration that inhibits the measured activity by half. A lower IC50 goes with inhibition by little substance. In the case of `CC(C)Cc1sc(-c2ccc(C(F)(F)F)c(C(=O)O)c2)nc1-c1ccc(Cl)c(Cl)c1` [I-227], the IC50 lay in the range of 1 to 10 µM.
Consider `CC(C)Cc1sc(Nc2ccccc2C(=O)O)nc1-c1ccc(Cl)c(Cl)c1` [I-141, 2-(4-(3,4-dichlorophenyl)-5-isobutylthiazol-2-ylamino)benzoic acid], for which the IC50 lay in the range of 1 to 10 µM.
To `CC(C)Cc1sc(N(CCC(=O)O)Cc2ccccc2)nc1-c1ccc(Cl)c(Cl)c1` [I-47, 3-(benzyl(4-(3,4-dichlorophenyl)-5-isobutylthiazol-2-yl)amino)propanoic acid] belongs at most 1 µM; to `CC(C)Cc1sc(N(CCC(=O)O)Cc2ccncc2)nc1-c1ccc(Cl)c(Cl)c1` [I-63], 1 to 10 µM; to `CC(C)Cc1sc(Nc2ncc(-c3cccs3)cc2C(=O)O)nc1-c1ccc(OCC(N)=O)c(Cl)c1` [I-329, 2-(4-(4-(2-amino-2-oxoethoxy)-3-chlorophenyl)-5-isobutylthiazol-2-ylamino)-5-(thiophen-2-yl)nicotinic acid], at most 1 µM.
As for `COc1cc(-c2cnc(Nc3nc(-c4ccc(Cl)c(Cl)c4)c(C(C)C)s3)c(C(=O)O)c2)ccn1` [I-268], the figure is at most 1 µM; as for `CC(C)Cc1sc(N(CCCc2ccccc2)CCC(=O)O)nc1-c1ccc(Cl)c(Cl)c1` [I-96], at most 1 µM; as for `CC(C)Cc1sc(Nc2ccc(N3CCOCC3)c(C(=O)O)c2)nc1-c1ccc(Cl)c(Cl)c1` [I-211], over 10 µM.
To `CC(C)c1sc(Nc2ncc(C(F)(F)F)cc2C(=O)O)nc1-c1ccc(Cl)cc1Cl` [I-323, 2-(4-(2,4-dichlorophenyl)-5-isopropylthiazol-2-ylamino)-5-(trifluoromethyl)nicotinic acid] belongs at most 1 µM.
Compound `CC(C)c1sc(NCC(CCc2ccccc2)C(=O)O)nc1-c1ccc(Cl)cc1` (stereo not drawn) [I-43] had an IC50 of 1 to 10 µM.
As for `CC(C)c1sc(NCC(Cc2cccc(O)c2)C(=O)O)nc1-c1ccc(Cl)cc1` (stereo not drawn) [I-41], the figure is 1 to 10 µM; as for `CC(C)Cc1sc(Nc2cc(-c3ccc(F)cc3)sc2C(=O)O)nc1-c1ccc(Cl)c(Cl)c1` [I-271], at most 1 µM.
